Source: patent US20110046187A1, “ASSESSING CONGESTIVE HEART RISK IN PATIENTS TREATED OR POTENTIALLY TO BE TREATED WITH A PEROXISOME-PROLIFERATOR-ACTIVATOR-RECEPTOR-GAMMA AGONIST OR A THIAZOLIDINEDIONE” (BG MEDICINE, INC., priority 2007, published 2011)
Where a name gives a salt, the structure may show the parent alone.

Columns and labels:
Assay type in all cases: in vivo
Galectin-3 mRNA = assay: Transcriptional profiling (Affymetrix GeneChip) of Galectin-3 mRNA levels in mouse T2DM animal models (db/db and HFD); parameters: key to Direction & Significance, Galectin-3 mRNA: Significant difference between the Group A and Group B median values for Galectin-3 mRNA; NS: No Significant Difference based on statistical comparison of Galectin-3 mRNA values in Group A and Group B; settings: for Direction & Significance, Galectin-3 mRNA / MFC (median fold change) Galectin-3 mRNA: drug/Disease (vehicle), Day 14; for MFC (median fold change) Galectin-3 mRNA: oral twice/day 14 days; for Effect on Gal-3 mRNA levels in adipose tissue, muscle or liver: mouse models of T2DM (text summary of Table 1)
BNP mRNA [1] = assay: Transcriptional profiling (Affymetrix GeneChip) of BNP mRNA levels in mouse T2DM animal models (db/db and HFD); parameters: key to Direction & Significance, BNP mRNA: Significant difference between the Group A and Group B median values for BNP mRNA; NS: No Significant Difference based on statistical comparison of Galectin-3 mRNA values in Group A and Group B; settings: drug/Disease (vehicle); for MFC (median fold change) BNP mRNA: oral twice/day 14 days; for Direction & Significance, BNP mRNA: Day 14
BNP mRNA [2] = assay: BNP mRNA level in muscle, Clinical, Rosi/Placebo
[3] = Adipose, HFD-06 high fat diet mouse
[4] = Liver, HFD-06 high fat diet mouse
[5] = Muscle, HFD-06 high fat diet mouse
[6] = Adipose, HFD-07 high fat diet mouse
[7] = Liver, HFD-07 high fat diet mouse
[8] = Muscle, HFD-07 high fat diet mouse

Row | SMILES | Direction & Significance, Galectin-3 mRNA (Galectin-3 mRNA; Adipose, DB-07 db/db mouse) | MFC (median fold change) Galectin-3 mRNA (Galectin-3 mRNA; Adipose, DB-07 db/db mouse) | Direction & Significance, Galectin-3 mRNA (Galectin-3 mRNA; [3]) | MFC (median fold change) Galectin-3 mRNA (Galectin-3 mRNA; [3]) | Direction & Significance, Galectin-3 mRNA (Galectin-3 mRNA; Liver, DB-07 db/db mouse) | MFC (median fold change) Galectin-3 mRNA (Galectin-3 mRNA; Liver, DB-07 db/db mouse) | Direction & Significance, Galectin-3 mRNA (Galectin-3 mRNA; [4]) | MFC (median fold change) Galectin-3 mRNA (Galectin-3 mRNA; [4]) | Direction & Significance, Galectin-3 mRNA (Galectin-3 mRNA; Muscle, DB-07 db/db mouse) | MFC (median fold change) Galectin-3 mRNA (Galectin-3 mRNA; Muscle, DB-07 db/db mouse) | Direction & Significance, Galectin-3 mRNA (Galectin-3 mRNA; [5]) | MFC (median fold change) Galectin-3 mRNA (Galectin-3 mRNA; [5]) | Effect on Gal-3 mRNA levels in adipose tissue, muscle or liver (Galectin-3 mRNA) | MFC (median fold change) BNP mRNA (BNP mRNA [1]; Adipose, DB-07 db/db mouse) | MFC (median fold change) BNP mRNA (BNP mRNA [1]; [3]) | Direction & Significance, BNP mRNA (BNP mRNA [1]; Adipose, DB-07 db/db mouse) | Direction & Significance, BNP mRNA (BNP mRNA [1]; [3]) | MFC (median fold change) BNP mRNA (BNP mRNA [1]; Liver, DB-07 db/db mouse) | MFC (median fold change) BNP mRNA (BNP mRNA [1]; [4]) | Direction & Significance, BNP mRNA (BNP mRNA [1]; Liver, DB-07 db/db mouse) | other results
1 | COc1ccc(Cl)cc1C(=O)NCCc1ccc(S(=O)(=O)NC(=O)NC2CCCCC2)cc1 [Glyburide, glyburide] | Increase NS | 1.10 | Increase NS | 1.04 | Increase NS | 1.01 | Increase NS | 1.02 | Increase NS | 1.19 | Decrease NS | 0.87 | Neither glyburide nor metformin treatment of the mouse models of T2DM had any significant effect | 1.02 | 1.16 | Increase NS | Increase NS | 0.85 | 0.93 | Decrease NS | Direction & Significance, BNP mRNA (BNP mRNA [1]; [4]): Decrease NS; MFC (median fold change) BNP mRNA (BNP mRNA [1]; Muscle, DB-07 db/db mouse): 0.83; MFC (median fold change) BNP mRNA (BNP mRNA [1]; [5]): 3.17; Direction & Significance, BNP mRNA (BNP mRNA [1]; Muscle, DB-07 db/db mouse): Decrease NS; Direction & Significance, BNP mRNA (BNP mRNA [1]; [5]): Increase NS
2 | CN(CCOc1ccc(CC2SC(=O)NC2=O)cc1)c1ccccn1 (centres unmarked) [Rosi, rosiglitazone maleate] | – | – | – | – | – | – | – | – | – | – | – | – | – | – | – | – | – | – | – | – | Direction & Significance, Galectin-3 mRNA (Galectin-3 mRNA; Adipose, DB-06 db/db mouse): Signif; MFC (median fold change) Galectin-3 mRNA (Galectin-3 mRNA; Adipose, DB-06 db/db mouse): 0.55; Direction & Significance, Galectin-3 mRNA (Galectin-3 mRNA; [6]): Signif; MFC (median fold change) Galectin-3 mRNA (Galectin-3 mRNA; [6]): 0.64; Direction & Significance, Galectin-3 mRNA (Galectin-3 mRNA; Liver, DB-06 db/db mouse): Signif; MFC (median fold change) Galectin-3 mRNA (Galectin-3 mRNA; Liver, DB-06 db/db mouse): 1.33; MFC (median fold change) Galectin-3 mRNA (Galectin-3 mRNA; [7]): 1.07; Direction & Significance, Galectin-3 mRNA (Galectin-3 mRNA; Muscle, DB-06 db/db mouse): Signif; MFC (median fold change) Galectin-3 mRNA (Galectin-3 mRNA; Muscle, DB-06 db/db mouse): 0.87; MFC (median fold change) Galectin-3 mRNA (Galectin-3 mRNA; [8]): 0.80; MFC (median fold change) BNP mRNA (BNP mRNA [1]; Adipose, DB-06 db/db mouse): 1.13; MFC (median fold change) BNP mRNA (BNP mRNA [1]; [6]): 1.29; Direction & Significance, BNP mRNA (BNP mRNA [1]; [6]): Signif; MFC (median fold change) BNP mRNA (BNP mRNA [1]; Liver, DB-06 db/db mouse): 1.68; MFC (median fold change) BNP mRNA (BNP mRNA [1]; [7]): 0.77; MFC (median fold change) BNP mRNA (BNP mRNA [1]; Muscle, DB-06 db/db mouse): 0.58; MFC (median fold change) BNP mRNA (BNP mRNA [1]; [8]): 1.40; MFC (median fold change) BNP mRNA (BNP mRNA [2]): 0.63
3 | CN(C)C(=N)N=C(N)N [Metformin, metformin] | Increase NS | 1.10 | Increase NS | 1.08 | Increase NS | 1.06 | Increase NS | 1.08 | Decrease NS | 0.90 | Decrease NS | 0.82 | Neither glyburide nor metformin treatment of the mouse models of T2DM had any significant effect | 0.87 | 0.67 | Decrease NS | Decrease NS | 0.88 | 1.03 | Decrease NS | Direction & Significance, BNP mRNA (BNP mRNA [1]; [4]): Increase NS; MFC (median fold change) BNP mRNA (BNP mRNA [1]; Muscle, DB-07 db/db mouse): 1.09; MFC (median fold change) BNP mRNA (BNP mRNA [1]; [5]): 2.17; Direction & Significance, BNP mRNA (BNP mRNA [1]; Muscle, DB-07 db/db mouse): Increase NS; Direction & Significance, BNP mRNA (BNP mRNA [1]; [5]): Increase NS
